What was measured:
Devic mice = assay: Spontaneous EAE model (Devic mice); type: in vivo, mouse
Procedure: FIG. 7 Devic mice at the age of 38 days and a clinical score of 7 (severe hind limb paralysis) were injected intravenously with 5 μg NDP-MSH every other day for 3 weeks. […] Disease progression was monitored over time.
To characterize the effects of NDP-MSH in a spontaneous EAE model Devic mice were used. Devic mouse mutants express transgenic T- and B-cell receptors specific for MOG and spontaneously develop EAE at the age of 4-5 weeks (Bettelli et al., 2006).
Starting at the age of 38 days when mice reached a clinical score of 7 (severe hind limb paralysis) animals were injected intravenously with 5 μg NDP-MSH every other day. […] Part of the mice almost completely recovered from disease. At day 60, NDP-MSH treatment was interrupted and mice were monitored for the onset of clinical symptoms.

MOG-immunized mice = assay: MOG-induced EAE, preemptive NDP-MSH injection; type: in vivo, mouse; conditions: preemptive injection before onset of hind limb paralysis
Source text: The neuropeptide α-MSH is a potent immunomodulator capable of inducing immunosuppression and tolerance. Using the mouse model of experimental autoimmune encephalomyelitis (EAE) the present inventors systemically treated MOG-immunized mice with NDP-MSH before and after the onset of hind limb paralysis. […] Since signaling via melanocortin-1-receptor (MC-1R) mediates the immunomodulatory effects of α-MSH, EAE was induced in MC-1R-deficient mice.

CD11c-DTR mice = assay: EAE in DC-depleted CD11c-DTR mice; type: in vivo, mouse; conditions: DC depleted by diphtheria toxin, 5 μg i.v. every 48 hours
Procedure: DC were depleted in C11c-DTR mice as described by Hochweller et al. (2008) by systemic treatment with diphtheria toxin. Subsequently, EAE was induced as described in FIG. 1. 5 μg NDP-MSH were injected intravenously every 48 hours and disease progression was monitored over time.

dendritic cells = assay: DC phenotype in regional lymph nodes of immunized mice; type: in vivo, mouse; conditions: vs PBS
Procedure: FIG. 5 Generation of tolerogenic dendritic cells by NDP-MSH treatment. The DC phenotype in regional lymph nodes from immunized NDP-MSH and PBS treated mice was analyzed. One representative dot plot (A) as well as the statistical evaluation from n=2-6 mice (B) is depicted. Cells are gated for MHCII and IL-10 as well as IFN-γ staining was performed after cell permeabilization. *, p<0.05 versus PBS treated mice.
Further, the DC phenotype in regional lymph nodes from immunized NDP-MSH and PBS treated mice was analyzed.

[1] = test system: Foxp3+ regulatory T cells; assay: Flow cytometry of Foxp3+ regulatory T cells from brain tissue of EAE mice; type: in vivo, mouse; conditions: day 17 post immunization, vs controls
Procedure: FIG. 4 Induction of functional regulatory T cells in the CNS by NDP-MSH treatment. Numbers, phenotype, and function of Foxp3^+ regulatory T cells isolated from brain tissue of NDP-MSH and PBS treated mice were analyzed. One representative dotplot (A) as well as the statistical evaluation from n=6 mice (B) is depicted. Cells are gated for CD4 and Foxp3 as well as Helios staining was performed after cell permeabilization. *, p<0.05 versus PBS treated mice.
Numbers, phenotype and function of Foxp3^+ regulatory T cells (Treg) isolated from brain tissue of NDP-MSH and PBS treated mice as described in Ex. 1 was analyzed at day 17 post immunization by flow cytometry analysis.

[2] = test system: C57BL/6 mice with experimental autoimmune encephalomyelitis (EAE); assay: MOG35-55-induced EAE, therapeutic systemic NDP-MSH treatment; type: in vivo, mouse; conditions: 5 μg NDP-MSH i.v. every 48 h from clinical score 2-3 (day 12), vs PBS
Procedure: FIG. 1 Effect of systemic NDP-MSH treatment on ongoing Experimental Autoimmune Encephalomyelitis (EAE). C57BL/6 mice were actively immunized by subcutaneous injection of myelin oligodendrocyte glycoprotein (MOG35-55) emulsified in Complete Freund's Adjuvant and systemically treated with 5 μg NDP-MSH or PBS every 48 hours beginning at a clinical score of 2-3. Mice were monitored for clinical score (A) and body weight (B) and sacrificed at day 17. Data from n=17 mice in each group is depicted, *, p<0.05 versus PBS-treated controls.
To investigate whether NDP-MSH is able to inhibit autoimmunity and inflammation in organs different from the skin, such as the central nervous system (CNS), the mouse model of experimental autoimmune encephalomyelitis (EAE), a T cell-mediated inflammatory autoimmune disease resembling human multiple sclerosis, was used.
Therefore, C57BL/6 mice were actively immunized by subcutaneous injection of myelin oligodendrocyte glycoprotein (MOG35-55) emulsified in Complete Freund's Adjuvant at the back skin (day 0). At day 0 and day 2 mice received intraperitoneal injections of 400 ng pertussis toxin and disease development was monitored daily. […] All mice were sacrificed at day 17 and analyzed on a cellular and molecular level. […]

MC-1R deficient mice = assay: EAE in MC-1R deficient mice; type: in vivo, mouse; conditions: treated as in Ex. 1
Source text: FIG. 6 Involvement of the melanocortin-1 receptor in effects of NDP-MSH on EAE progression. EAE was induced in MC-1R deficient mice as described in FIG. 1. Subsequently, disease development was monitored over time.
To investigate whether the NDP-MSH induced effects on the progression of EAE were mediated via binding to a functional MC-1R, EAE was induced in MC-1R deficient mice with a point mutation in the MC-1R gene resulting in a truncated protein (Roberts et al., 1993). Mice were immunized with MOG35-55, injected with pertussis toxin and treated with NDP-MSH or PBS as described in Ex. 1. Subsequently, disease development was monitored over time.

[3] = test system: Th1 and Th17 cells in the CNS; assay: Flow cytometry of pathogenic Th1 and Th17 cells in the CNS of EAE mice; type: in vivo, mouse; conditions: day 17 post immunization, brain and spinal cord, n=8, vs PBS controls
Procedure: FIG. 3 Effect of NDP-MSH treatment of numbers of pathogenic Th1 and Th17 cells in the CNS. At day 17 post immunization brain and spinal cord from EAE mice treated with PBS and NDP-MSH as described for FIG. 1 were isolated. Cells were analyzed by multi-color flow cytometry using antibodies against CD4, IL-17, ROR-γt, IFN-γ and T-bet. One representative image (A) as well as the statistical evaluation from n=8 mice in each group (B) is shown, Cells are gated for CD4 and IL-17, ROR-γt, IFN-γ as well as T-bet staining was performed after cell permeabilization.
Reduced numbers of pathogenic Th1 and Th17 cells in the CNS from NDP-MSH treated mice compared to PBS-treated controls. At day 17 post immunization brain and spinal cord were isolated from PBS- and NDP-MSH-treated mice and single cell suspensions were prepared using density gradient centrifugation. Subsequently, cells were analyzed by multi-color flow cytometry using antibodies against CD4, IL-17, ROR-gt, IFN-g and T-bet. […] Cells are gated for CD4 and IL-17, ROR-gt, IFN-g as well as T-bet staining was performed after cell permeabilization.

effector T cells = assay: Suppression of effector T cell proliferation in vitro by Treg from treated mice; type: cell-based, mouse
Nur77 = Nur77 expression in NDP-MSH stimulated neurons; type: cell-based; conditions: vs vehicle-treated controls
[4] = test system: rat primary astrocytes and microglia; conditions: in vitro, via MC-4R signaling; cited from earlier work
brain tissue of EAE mice = assay: Histology and immunofluorescence of brain tissue from EAE mice; type: in vivo, mouse; conditions: day 17 post immunization, vs PBS
Procedure: FIG. 2 Histological analyses of brain tissue obtained from mice treated as described in FIG. 1. […] One representative image for each group (+NDP-MSH, +PBS) is shown.
Brain tissue from mice treated with NDP-MSH or PBS at day 17 post immunization obtained from Ex. 1 was analyzed. […] One representative overview (A) as well as a sectional enlargement (B) is depicted for each group. […] One representative image for each group is shown.

DEREG mice = assay: EAE in Treg-depleted DEREG mice; type: in vivo, mouse; conditions: Treg depleted by diphtheria toxin, 5 μg i.v. every 48 hours
Source text: Treg were depleted in DEREG mice as described by Lahl et al. (2007) by systemic treatment with diphtheria toxin. Subsequently, EAE was induced as described in FIG. 1.
Subsequently, EAE was induced as described in Ex. 1.

primary mouse neurons = assay: Glutamate-stimulated primary neurons, apoptosis genes and neuronal damage; type: cell-based
Procedure: FIG. 10 Expression of pro-apoptotic (caspase-8) and anti-apoptotic (Bcl-2) genes in primary mouse neurons after treatment with […] Glutamat or 50 μM Glutamat+1 nM NDP-MSH. Primary murine neurons were stimulated with glutamate which results in apoptosis (increased expression of pro-apoptotic caspase-8 and a reduced expression of anti-apoptotic Bcl-2 relative to PBS-treated controls).
The neuroprotective role of NDP-MSH was further confirmed analyzing neurons from NDP-MSH-treated animals and vehicle-treated controls (isolated before and after MOG immunization) using histological staining tests for the detection of myelin, NeuN, act. Caspase 3 and TUNEL. Further, in vitro stimulation of neurons from embryonic mice with glutamate—which causes cell damage—in the presence or absence of NDP-MSH and subsequent histological staining tests for the detection of myelin, NeuN, act. […] Thus, a neuroprotective effect of NDP-MSH is a very likely explanation for the observed effect in the EAE model.

[5] = rat, in vivo; cited from earlier work
[6] = 50 μM glutamate + 1 nM NDP-MSH vs glutamate alone

[Nle^4, D-Phe^7]-α-MSH [NDP-MSH]
disease course (clinical symptoms of EAE) (Devic mice; 5 μg i.v. every other day for 3 weeks from day 38, clinical score 7): significant amelioration of disease in all animals | body weight (Devic mice; 5 μg i.v. every other day for 3 weeks, vs PBS): gained weight | disease recurrence after treatment interruption (Devic mice; treatment interrupted at day 60, several weeks without injection): no disease recurrence | EAE development (MOG-immunized mice): resistant to EAE development | disease onset (CD11c-DTR mice): prevented disease onset | DC expression of PD-L1 or IL-10 (dendritic cells): increased levels | DC maturation markers CD80 and IFN-γ (dendritic cells): down-regulated | numbers of Foxp3+ Treg expressing Helios or CTLA-4 in brain tissue [1]: present at higher numbers | body weight [2]: started gaining weight after the first injection | paralysis (clinical score) [2]: recovered from paralysis | disease development (hind limb paralysis) (MC-1R deficient mice): developed hind limb paralysis similar to PBS treated controls | reduced infiltration of Th1 cells in the CNS [3]: 2 factor | reduced infiltration of Th17 cells in the CNS [3]: 5 factor | function of Treg from treated mice: proliferation of effector T cells (effector T cells): efficiently inhibited the proliferation of effector T cells | Nur77 receptor expression (Nur77): induction of the neuroprotective Nur77 receptor | release of IL-10 and TGF-β [4]: stimulates the release of IL-10 and TGF-β | expression of tissue destruction marker APP in the brain (brain tissue of EAE mice; immunofluorescence): Dramatically reduced expression | expression of tissue inflammation marker RILPL2 in the brain (brain tissue of EAE mice; immunofluorescence): Dramatically reduced expression | mononuclear pro-inflammatory cells infiltrating the brain (H&E staining) (brain tissue of EAE mice): almost no cell infiltrates were detectable | myelination of the brain (luxol fast blue staining) (brain tissue of EAE mice): tremendous re-myelination | disease severity (DEREG mice): reduced disease severity | expression of anti-apoptotic Bcl-2 (primary mouse neurons; [6]): increased expression of anti-apoptotic Bcl-2 | expression of pro-apoptotic caspase-8 (primary mouse neurons; [6]): reduced expression of pro-apoptotic caspase-8 | glutamate-induced neuronal damage (myelin, NeuN, act. Caspase 3, TUNEL staining) (primary mouse neurons; neurons from embryonic mice, in vitro): reduce the glutamate-induced neuronal damage

melanotan-II
nerve regeneration and neuroprotection [5]: effective in nerve regeneration and neuroprotection
